In patent US20250250230A1, “HETEROCYCLIC COMPOUND” (TAKEDA PHARMACEUTICAL COMPANY LIMITED, priority 2022, published 2025):

Target: T1, human orexin type 2 receptor (Homo sapiens, UniProt O43614)
T1 construct: expressed in transfected cells
T1 sequence (O43614 1-444): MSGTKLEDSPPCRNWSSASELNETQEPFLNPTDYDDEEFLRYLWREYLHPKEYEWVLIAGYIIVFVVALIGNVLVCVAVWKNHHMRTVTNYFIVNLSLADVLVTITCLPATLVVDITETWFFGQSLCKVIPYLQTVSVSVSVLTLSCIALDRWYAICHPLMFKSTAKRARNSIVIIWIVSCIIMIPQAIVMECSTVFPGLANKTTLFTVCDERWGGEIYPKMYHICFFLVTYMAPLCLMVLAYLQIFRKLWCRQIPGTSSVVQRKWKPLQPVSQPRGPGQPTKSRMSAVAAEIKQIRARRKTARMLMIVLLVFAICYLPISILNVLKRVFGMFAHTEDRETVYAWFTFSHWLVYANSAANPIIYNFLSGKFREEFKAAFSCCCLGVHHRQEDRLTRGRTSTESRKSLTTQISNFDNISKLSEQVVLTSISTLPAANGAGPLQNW
Test: Measurement of orexin type 2 receptor agonist activity (calcium fluorescence, Fluo-4 AM, FDSS)
Type: cell-based
Settings: test compound 3 μM; CHO cells expressing human OX2 receptor; DMSO = 0%, orexin A (human) = 100%
In short: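 CHO-K1 cells stably expressing human OX2R were loaded with Fluo-4 AM (30 min 37 °C, 30 min RT) in HEPES-buffered HBSS with 0.1% BSA and probenecid. Calcium fluorescence was followed on FDSS for 2 min after compound addition; activity normalised to DMSO (0%) and 10 nM orexin A (100%).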

| Structure (SMILES) | OX2R agonist activity (3 μM, %) [%] |
| --- | --- |
| CC(NS(C)(=O)=O)C12CC(C1)N(C(=O)[C@@H]1C[C@@]1(F)c1ccccc1-c1c(F)cccc1F)C2 (stereo partly drawn) [Example 392, N-[(1R)-1-{2-[(1S,2S)-2-(2′,6′-difluoro[1,1′-biphenyl]-2-yl)-2-fluorocyclopropane-1-carbonyl]-2-azabicyclo[2.1.1]hexan-4-yl}ethyl]methanesulfonamide, or N-[(1S)-1-{2-[(1S,2S)-2-(2′,6′-difluoro[1,1′-biphenyl]-2-yl)-2-fluorocyclopropane-1-carbonyl]-2-azabicyclo[2.1.1]hexan-4-yl}ethyl]methanesulfonamide] | 68 |
| CS(=O)(=O)NC(C1CC1)[C@@H]1CCN1C(=O)[C@@H]1C[C@@]1(F)c1ccccc1-c1c(F)cccc1F (stereo partly drawn) [Example 394, N-[(R)-cyclopropyl{(2S)-1-[(1S,2S)-2-(2′,6′-difluoro[1,1′-biphenyl]-2-yl)-2-fluorocyclopropane-1-carbonyl]azetidin-2-yl}methyl]methanesulfonamide, or N-[(S)-cyclopropyl{(2S)-1-[(1S,2S)-2-(2′,6′-difluoro[1,1′-biphenyl]-2-yl)-2-fluorocyclopropane-1-carbonyl]azetidin-2-yl}methyl]methanesulfonamide] | 106 |
| C[C@@H]1CN(C(=O)C2CC2(F)c2c(F)cccc2-c2c(F)cccc2F)[C@@H]1CNS(C)(=O)=O (stereo partly drawn) [Example 395, N-({(2S,3R)-1-[(1R,2R)-2-fluoro-2-(2′,3,6′-trifluoro[1,1′-biphenyl]-2-yl)cyclopropane-1-carbonyl]-3-methylazetidin-2-yl}methyl)methanesulfonamide, or N-({(2S,3R)-1-[(1S,2S)-2-fluoro-2-(2′,3,6′-trifluoro[1,1′-biphenyl]-2-yl)cyclopropane-1-carbonyl]-3-methylazetidin-2-yl}methyl)methanesulfonamide] | 99 |
| Cc1ccc(C2(F)CC2C(=O)N2C[C@@H](C)[C@H]2CNS(C)(=O)=O)c(-c2c(F)cccc2F)c1 (stereo partly drawn) [Example 396, N-({(2S,3R)-1-[(1R,2R)-2-(2′,6′-difluoro-5-methyl[1,1′-biphenyl]-2-yl)-2-fluorocyclopropane-1-carbonyl]-3-methylazetidin-2-yl}methyl)methanesulfonamide, or N-({(2S,3R)-1-[(1S,2S)-2-(2′,6′-difluoro-5-methyl[1,1′-biphenyl]-2-yl)-2-fluorocyclopropane-1-carbonyl]-3-methylazetidin-2-yl}methyl)methanesulfonamide] | 104 |

The remaining lines, values ahead:

| OX2R agonist activity (3 μM, %) [%] | Structure (SMILES) |
| --- | --- |
| 84 | COC[C@@H]1CN(C(=O)[C@@H]2C[C@@]2(F)c2ccccc2-c2c(F)cccc2F)[C@@H]1CNS(C)(=O)=O [Example 397, N-{[(2S,3R)-1-[(1S,2S)-2-(2′,6′-difluoro[1,1′-biphenyl]-2-yl)-2-fluorocyclopropane-1-carbonyl]-3-(methoxymethyl)azetidin-2-yl]methyl}methanesulfonamide] |
| 97 | CS(=O)(=O)NC[C@@H]1[C@H](CF)CN1C(=O)[C@@H]1C[C@@]1(F)c1ccccc1-c1c(F)cccc1F [Example 398, N-{[(2S,3R)-1-[(1S,2S)-2-(2′,6′-difluoro[1,1′-biphenyl]-2-yl)-2-fluorocyclopropane-1-carbonyl]-3-(fluoromethyl)azetidin-2-yl]methyl}methanesulfonamide] |
| 99 | CS(=O)(=O)NC[C@H]1[C@H](CF)CN1C(=O)[C@@H]1C[C@@]1(F)c1ccccc1-c1c(F)cccc1F [Example 400, N-{[(2R,3R)-1-[(1S,2S)-2-(2′,6′-difluoro[1,1′-biphenyl]-2-yl)-2-fluorocyclopropane-1-carbonyl]-3-(fluoromethyl)azetidin-2-yl]methyl}methanesulfonamide] |
